Laboratory results: US10047105B2, “Gyrase inhibitors” (Merck Sharp & Dohme Corp., priority 2009, dated 2018)
In brackets after ≈: the same amount, converted by molar mass.

Key:
[1] = test system: S. aureus ATCC 13709; experiment: MIC, antibacterial potency, S. aureus; assay type: cell-based
[2] = test system: S. pneumoniae ATCC 51916; experiment: MIC, S. pneumoniae; assay type: cell-based
[3] = S. pneumoniae (Spn52), in µg/mL

SMILES | MIC, SA ([1]; S. aureus (SA), in µg/mL) | MIC Spn52 [2, 3] | MIC, SA ([1]; S. aureus) | MIC Spn52 ([2]; S. pneumoniae)
CCc1[nH]c2nc(Sc3cnc4nccnc4c3)nc(N3CC(C4(N)CC4)C3)c2c1Cl [700,707] |  |  | 2 µg/mL (≈ 4.42 µM) | 4 µg/mL (≈ 8.83 µM)
CCOC(=O)c1cnc(Sc2nc(OCC)c3c(Br)c(CC)[nH]c3n2)s1 [700,291] |  |  | > 64 µg/mL | > 64 µg/mL
CCc1[nH]c2nc(Sc3cnc4nccnc4c3)nc(N(C)CC(O)C(O)C(O)C(O)CO)c2c1Cl (stereo not drawn) [700,431] |  |  | > 64 µg/mL | > 64 µg/mL
CCOc1nc(Nc2cncnc2)nc2[nH]c(CC)c(Cl)c12.O=C(O)C(F)(F)F [700,702] |  |  | 2 µg/mL | 16 µg/mL
CCc1[nH]c2nc(Sc3cnc4nccnc4c3)nc(N3CCC(C(O)c4cccs4)CC3)c2c1Cl.O=C(O)C(F)(F)F (stereo not drawn) [700,656] |  |  | ≤ 0.5 µg/mL | 2 µg/mL
CCc1[nH]c2nc(Oc3cncc(F)c3)nc(Oc3cncc(F)c3)c2c1Cl.O=C(O)C(F)(F)F [700,477] |  |  | 1 µg/mL | 16 µg/mL
CCc1[nH]c2nc(Sc3cnc4nccnc4c3)nc(Oc3cncc(OC)c3)c2c1Cl [700,686] |  |  | > 64 µg/mL | > 64 µg/mL
CCOc1nc(Sc2cccnc2)nc2[nH]c(CC)c(Br)c12.O=C(O)C(F)(F)F [700,275] |  |  | 1 µg/mL | 8 µg/mL
CCc1[nH]c2nc(Sc3cccnc3)nc(Cl)c2c1Br.O=C(O)C(F)(F)F [700,267] |  |  | 2 µg/mL | 16 µg/mL
CCc1[nH]c2nc(Sc3cnc4nccnc4c3)nc(NCCN3CCCC3)c2c1Cl.O=C(O)C(F)(F)F [700,510] |  |  | > 64 µg/mL | > 64 µg/mL
CCCn1c(=O)cc(Sc2nc(N3CC(O)C3)c3c(Cl)c(CC)[nH]c3n2)[nH]c1=O [700,418] |  |  | 1 µg/mL (≈ 2.29 µM) | 8 µg/mL (≈ 18.3 µM)
CCc1[nH]c2nc(Sc3cnc4nccnc4c3)nc(N3CC(N4CCCC4)C3)c2c1Cl.O=C(O)C(F)(F)F.O=C(O)C(F)(F)F [700,604] |  |  | 4 µg/mL | 8 µg/mL
CCOc1nc(Sc2nc(C(=O)OC)cs2)nc2[nH]c(CC)c(Br)c12 [700,281] |  |  | 32 µg/mL (≈ 72.2 µM) | 64 µg/mL (≈ 144 µM)
CCc1[nH]c2nc(Sc3cnc4nccnc4c3)nc(N3CC[C@H](O)C3)c2c1Cl [700,427] |  |  | ≤ 0.5 µg/mL | 1 µg/mL (≈ 2.34 µM)
CCc1[nH]c2nc(Sc3cnc4nccnc4c3)nc(N3CCCNCC3)c2c1Cl.O=C(O)C(F)(F)F [700,569] |  |  | 8 µg/mL | 4 µg/mL
CCc1[nH]c2nc(Sc3cnc4[nH]c(C(F)(F)F)nc4c3)nc(N3CC[C@@H](N)C3)c2c1Cl [700,696] |  |  | > 64 µg/mL | 16 µg/mL (≈ 33.1 µM)
CCc1[nH]c2nc(Sc3cnc4nccnc4c3)nc(NCCNC(=O)OC(C)(C)C)c2c1Cl.O=C(O)C(F)(F)F [700,508] |  |  | 2 µg/mL | 4 µg/mL
CCc1[nH]c2nc(Sc3cnc4nccnc4c3)nc(N3CC[C@H](O)[C@H]3CO)c2c1Cl [700,657] |  |  | 8 µg/mL (≈ 17.5 µM) | 2 µg/mL (≈ 4.37 µM)
CCc1[nH]c2nc(Sc3ccc4c(NCC(C)O)ncnc4c3)nc(N3CCC(N)C3)c2c1Cl (stereo not drawn) [700,575] |  |  | 8 µg/mL (≈ 16 µM) | 16 µg/mL (≈ 32.1 µM)
CCc1[nH]c2nc(Oc3cncnc3)nc(Oc3cncc(OC)c3)c2c1Cl.O=C(O)C(F)(F)F [700,648] |  |  | ≤ 0.5 µg/mL | 2 µg/mL
CCc1[nH]c2nc(Nc3cnc4c(c3)nnn4C(C)C)nc(N(C)CCO)c2c1Cl.O=C(O)C(F)(F)F [700,534] |  |  | 2 µg/mL | > 32 µg/mL
CCc1[nH]c2nc(Sc3cnc4ccoc4c3)nc(N3CC4CNC4C3)c2c1Br.O=C(O)C(F)(F)F (stereo not drawn) [700,680] |  |  | 16 µg/mL | 64 µg/mL

The next lines start with results.

MIC, SA ([1]; S. aureus (SA), in µg/mL) | MIC Spn52 [2, 3] | SMILES | MIC, SA ([1]; S. aureus) | MIC Spn52 ([2]; S. pneumoniae)
8 | 16 | CCc1[nH]c2nc(Sc3cnc(N)nc3)nc(N3CC[C@@H](N)C3)c2c1Cl [700,788] |  | 
16 | >64 | CCc1[nH]c2nc(Sc3ccc4cc5c(=O)[nH][nH]c(=O)c5nc4c3)nc(N3CC[C@@H](N)C3)c2c1Cl [700,861] |  | 
<=0.5 | 2 | CCc1[nH]c2nc(Sc3cnc4nccnc4c3)nc(N3CCC(CO)C3)c2c1Cl (stereo not drawn) [700,830] |  | 
1 | <=0.5 | CCc1[nH]c2nc(Sc3cc(Cl)c4c(N)nc(C)nc4c3)nc(N3CC[C@@H](N)C3)c2c1Cl [700,865] |  | 
>64 | >64 | CCc1[nH]c2nc(Sc3ccc4nnc(C(=O)NCC5CCNCC5)nc4c3)nc(N3CC[C@@H](N)C3)c2c1Cl [700,845] |  | 
64 | 64 | CCc1[nH]c2nc(Sc3cnc4cccnc4c3)nc(N3C[C@@H]4[C@H](C3)[C@H]4N(Cc3ccccc3)Cc3ccccc3)c2c1Cl [700,823] |  | 
2 | 8 | CCc1[nH]c2nc(Sc3ccc4ccc(C(=O)O)nc4c3)nc(N3CC(NC(=O)C4CC4)C3)c2c1Cl [700,807] |  | 
32 | 64 | CCc1[nH]c2nc(Sc3ccc4c(N5CC[C@@H](N)C5)ncnc4c3)nc(N3CC[C@@H](N)C3)c2c1Cl [700,903] |  | 
